Laboratory results as given in BindingDB's records for doi:10.1007/s00044-010-9377-3 (n/a, 2011).

Test: Inhibition of rat intestinal alpha-glucosidase using p-nitrophenyl- alpha-D-glucopyranoside as substrate preincubated for 5 min before addition of substrate measured after 10 min

| Compound | IC50 |
| --- | --- |
| COc1ccc(/N=C/c2cc(Br)ccc2O)cc1 | 74.1 µM |
| O=[N+]([O-])c1ccc(/N=C/c2ccccc2O)cc1 | 22.7 µM |
| O=Cc1cc(Br)ccc1O [US8614253,3-44] | 8.8 µM |
